# Laboratory results published in patent US7161032B2, “Sulfonamide derivatives, insecticides for agricultural and horticultural use, and usage thereof” (Nihon Nohyaku Co., Ltd., priority 2002, dated 2007).
# Assays:
# Format in all cases: in vivo
# [1] = test system: Common Cutworm (Spodoptera litura); test: Insecticidal effect on common cutworm (Test Example 2): cabbage leaf piece immersed in 50 ppm liquid chemical; details: common cutworm (Spodoptera litura) second-instar larvae, 8 days after inoculation, 25° C.
# Protocol: A piece of cabbage leaf (cultivar: Shikidori) was immersed for about 30 seconds in a liquid chemical prepared by diluting a preparation containing each compound listed in Table 1 or 2 as an active ingredient to adjust the concentration to 50 ppm. After air-dryness, it was placed in a plastic Petri dish with a diameter of 9 cm and inoculated with second-instar larvae of common cutworm, after which the dish was closed and then allowed to stand in a room thermostated at 25° C. Eight days after the inoculation, the dead and alive were counted. The mortality was calculated according to the following equation and the insecticidal effect was judged according to the criterion shown in Test Example 1. The test was carried out with triplicate groups of 10 insects. [formula]
# [2] = test system: Diamond Back Moth (Plutella xylostella); test: Insecticidal effect on diamond back moth (Test Example 1): egg-bearing Chinese cabbage seedling immersed in 50 ppm liquid chemical
# Protocol: Adult diamond back moths were released and allowed to oviposit on a Chinese cabbage seedling. Two days after the release, the seedling having the eggs deposited thereon was immersed for about 30 seconds in a liquid chemical prepared by diluting a preparation containing each compound listed in Table 1 or 2 as an active ingredient to adjust the concentration to 50 ppm. After air-dryness, it was allowed to stand in a room thermostated at 25° C. Six days after the immersion, the hatched insects were counted. The mortality was calculated according to the following equation and the insecticidal effect was judged according to the criterion shown below. The test was carried out with triplicate groups of 10 insects. [formula]
# [3] = test system: Smaller Tea Tortrix (Adoxophyes sp.); test: Insecticidal effect on smaller tea tortrix (Test Example 3): tea leaves immersed in 50 ppm liquid chemical; details: smaller tea tortrix (Adoxophyes sp.) larvae, 8 days after inoculation, 25° C., humidity 70%
# Protocol: Tea leaves were immersed for about 30 seconds in a liquid chemical prepared by diluting a preparation containing each compound listed in Table 1 or 2 as an active ingredient to adjust the concentration to 50 ppm. After air-dryness, the tea leaves were placed in a plastic Petri dish with a diameter of 9 cm and inoculated with larvae of smaller tea tortrix, after which the dish was allowed to stand in a room thermostated at 25° C. and having a humidity of 70%. Eight days after the inoculation, the dead and alive were counted and the insecticidal effect was judged according to the criterion shown in Test Example 1. The test was carried out with triplicate groups of 10 insects.
Structure (SMILES),"Insecticidal effect (mortality grade), Test Example 2 [1]","Insecticidal effect (mortality grade), Test Example 1 [2]","Insecticidal effect (mortality grade), Test Example 3 [3]"
CSCCNS(=O)(=O)CC(C)(C)NC(=O)c1c(I)cccc1C(=O)Nc1ccc(C(F)(F)C(F)(F)F)cc1C [1-304],A (Mortality 100%),A (Mortality 100%),A (Mortality 100%)
Cc1cc(C(F)(C(F)(F)F)C(F)(F)F)ccc1NC(=O)c1cccc(I)c1C(=O)NC(C)CS(=O)(=O)NCCO (stereo not shown) [1-72],A (Mortality 100%),A (Mortality 100%),A (Mortality 100%)
CCCCNS(=O)(=O)CC(C)(C)NC(=O)c1c(I)cccc1C(=O)Nc1ccc(C(F)(C(F)(F)F)C(F)(F)F)cc1C [1-180],C (Mortality 89–80%),A (Mortality 100%),A (Mortality 100%)
CCN(CC)S(=O)(=O)CC(C)NC(=O)c1c(I)cccc1C(=O)Nc1ccc(C(F)(C(F)(F)F)C(F)(F)F)cc1C (stereo not shown) [1-6],A (Mortality 100%),A (Mortality 100%),A (Mortality 100%)
COc1ccccc1NS(=O)(=O)CC(C)NC(=O)c1c(I)cccc1C(=O)Nc1ccc(C(F)(C(F)(F)F)C(F)(F)F)cc1C (stereo not shown) [1-108],A (Mortality 100%),A (Mortality 100%),A (Mortality 100%)
CSCC(C)(C)NS(=O)(=O)CC(C)NC(=O)c1c(I)cccc1C(=O)Nc1ccc(C(F)(C(F)(F)F)C(F)(F)F)cc1C (stereo not shown) [1-94],A (Mortality 100%),A (Mortality 100%),A (Mortality 100%)
Cc1cc(C(F)(C(F)(F)F)C(F)(F)F)ccc1NC(=O)c1cccc(I)c1C(=O)NC(C)CS(=O)(=O)NC(C)(C)Cc1ccccc1 (stereo not shown) [1-48],C (Mortality 89–80%),A (Mortality 100%),A (Mortality 100%)
Cc1cc(C(F)(C(F)(F)F)C(F)(F)F)ccc1NC(=O)c1cccc(I)c1C(=O)NC(C)(C)CS(=O)(=O)N(C)C [1-177],A (Mortality 100%),A (Mortality 100%),A (Mortality 100%)
Cc1cc(C(F)(C(F)(F)F)C(F)(F)F)ccc1NC(=O)c1cccc(I)c1C(=O)NC(C)CS(=O)(=O)NC(C)c1ccccc1 (stereo not shown) [1-44],A (Mortality 100%),A (Mortality 100%),A (Mortality 100%)
Cc1cc(C(F)(C(F)(F)F)C(F)(F)F)ccc1NC(=O)c1cccc(I)c1C(=O)NC(C)(C)CS(=O)(=O)N1CCS(=O)(=O)CC1C (stereo not shown) [1-63],A (Mortality 100%),A (Mortality 100%),A (Mortality 100%)
Cc1cc(C(F)(F)C(F)(F)F)ccc1NC(=O)c1cccc(I)c1C(=O)NC(C)(C)CS(=O)(=O)NCCS(C)(=O)=O [1-306],A (Mortality 100%),A (Mortality 100%),A (Mortality 100%)
CCCNS(=O)(=O)CC(C)NC(=O)c1c(Br)cccc1C(=O)Nc1ccc(C(F)(C(F)(F)F)C(F)(F)F)cc1C (stereo not shown) [1-215],A (Mortality 100%),A (Mortality 100%),A (Mortality 100%)
COc1cccc(CNS(=O)(=O)CC(C)NC(=O)c2c(I)cccc2C(=O)Nc2ccc(C(F)(C(F)(F)F)C(F)(F)F)cc2C)c1 (stereo not shown) [1-29],A (Mortality 100%),A (Mortality 100%),A (Mortality 100%)
CCN(CC)S(=O)(=O)CC(C)(C)NC(=O)c1ccccc1C(=O)Nc1ccc(C(F)(C(F)(F)F)C(F)(F)F)cc1C [1-208],E (Mortality less than 50%),A (Mortality 100%),A (Mortality 100%)
CCN(CC)S(=O)(=O)CC(C)NC(=O)c1c(I)cccc1C(=O)Nc1ccc(C(F)(C(F)(F)F)C(F)(F)F)cc1C (stereo not shown) [1-144],A (Mortality 100%),A (Mortality 100%),A (Mortality 100%)
Cc1cc(C(F)(F)C(F)(F)F)ccc1NC(=O)c1cccc(I)c1C(=O)NC(C)(C)CS(=O)(=O)NCc1ccccc1 [1-303],A (Mortality 100%),A (Mortality 100%),A (Mortality 100%)
CSC[C@H](C)NS(=O)(=O)C[C@H](C)NC(=O)c1c(I)cccc1C(=O)Nc1ccc(C(F)(C(F)(F)F)C(F)(F)F)cc1C [1-147],A (Mortality 100%),A (Mortality 100%),A (Mortality 100%)
CCN(CC)S(=O)(=O)CC(C)(C)NC(=O)c1c(I)cccc1C(=O)Nc1ccc(C(F)(F)C(F)(F)F)cc1C [1-302],A (Mortality 100%),A (Mortality 100%),A (Mortality 100%)
Cc1cc(C(F)(C(F)(F)F)C(F)(F)F)ccc1NC(=O)c1cccc(I)c1C(=O)NC(C)CS(=O)(=O)NCCS(C)(=O)=O (stereo not shown) [1-77],A (Mortality 100%),A (Mortality 100%),A (Mortality 100%)
CCN(CC)S(=O)(=O)CC(C)(C)NC(=O)c1c(I)cccc1C(=O)Nc1ccc(C(F)(C(F)(F)F)C(F)(F)F)cc1C [1-179],A (Mortality 100%),A (Mortality 100%),A (Mortality 100%)
Cc1cc(C(F)(C(F)(F)F)C(F)(F)F)ccc1NC(=O)c1cccc(I)c1C(=O)NC(C)CS(=O)(=O)NCC[S+](C)[O-] (stereo not shown) [1-76],A (Mortality 100%),A (Mortality 100%),A (Mortality 100%)
CSCCNS(=O)(=O)CC(C)NC(=O)c1c(I)cccc1C(=O)Nc1ccc(C(F)(C(F)(F)F)C(F)(F)F)cc1C (stereo not shown) [1-75],A (Mortality 100%),A (Mortality 100%),A (Mortality 100%)
CCNS(=O)(=O)CC(C)NC(=O)c1c(I)cccc1C(=O)Nc1ccc(Cl)c(Cl)c1Cl (stereo not shown) [1-266],C (Mortality 89–80%),A (Mortality 100%),E (Mortality less than 50%)
Cc1cc(C(F)(C(F)(F)F)C(F)(F)F)ccc1NC(=O)c1cccc(I)c1C(=O)NC(C)CS(=O)(=O)NCc1ccc(SC(F)(F)F)cc1 (stereo not shown) [1-38],A (Mortality 100%),A (Mortality 100%),A (Mortality 100%)
CONS(=O)(=O)CC(C)NC(=O)c1c(I)cccc1C(=O)Nc1ccc(C(F)(C(F)(F)F)C(F)(F)F)cc1C (stereo not shown) [1-116],D (Mortality 79–50%),A (Mortality 100%),A (Mortality 100%)
CCCCNS(=O)(=O)CC(C)NC(=O)c1c(Br)cccc1C(=O)Nc1ccc(C(F)(C(F)(F)F)C(F)(F)F)cc1C (stereo not shown) [1-217],A (Mortality 100%),A (Mortality 100%),A (Mortality 100%)
Cc1cc(C(F)(C(F)(F)F)C(F)(F)F)ccc1NC(=O)c1cccc(I)c1C(=O)NC(C)CS(=O)(=O)NC(C)C[S+](C)[O-] (stereo not shown) [1-92],A (Mortality 100%),A (Mortality 100%),A (Mortality 100%)
CCNS(=O)(=O)CC(C)NC(=O)c1c(I)cccc1C(=O)Nc1ccc(C(F)(C(F)(F)F)C(F)(F)F)cc1C (stereo not shown) [1-142],–,–,A (Mortality 100%)
